Source: patent EP3290438A1, “FOOD ALLERGEN EXTRACTS AND METHODS OF PRODUCING AND USING THE SAME” (CONSEJO SUPERIOR DE INVESTIGACIONES CIENTIFICAS, priority 2016, dated 2018)

T1: Gad m 1 peptide 12 (12-mer overlapping synthetic peptide) (Atlantic cod)
T1 construct: Immobilized on the SPOT membrane, about 10 nmol per spot
T1 peptide: GSFDHKAFFTKV

T2: Gad m 1 peptide 13 (12-mer overlapping synthetic peptide) (Atlantic cod)
T2 construct: Immobilized on the SPOT membrane, about 10 nmol per spot
T2 peptide: FDHKAFFTKVGL

T3: Gad m 1 peptide 14 (12-mer overlapping synthetic peptide) (Atlantic cod)
T3 construct: Immobilized on the SPOT membrane, about 10 nmol per spot
T3 peptide: HKAFFTKVGLAA

T4: Gad m 1 peptide 15 (12-mer overlapping synthetic peptide) (Atlantic cod)
T4 construct: Immobilized on the SPOT membrane, about 10 nmol per spot
T4 peptide: AFFTKVGLAAKS

B1: rGad m 1 wt, amyloid fibrils (formed in 5 mM EDTA) (other)
chain: AFAGILNDADITAALAACKAEGSFDHKAFFTKVGLAAKSSADIKKVFEIIDQDKSDFVEEDELKLFLQNFSAGARALSDAETKVFLKAGDSDGDGKIGVDEFGAMIKA
notes: Same chain as the wt monomer, in the amyloid state; also called wt-F; rGad m 1 amyloids; not shown: N-terminal histidine tag of the pET15b construct

What was measured:
[1] = tested on: IgE in sera from fish-allergic patients; assay: Peptide array (SPOT) immunoassay, IgE binding; set-up: species or system human; settings: sera from ten fish-allergic patients (groups S-I, S-II), 1/10 dilution; 10 nmol/spot
Excerpt: It was first characterized the sequence elements to address how amyloid formation contributes to the IgE reactivity of Gad m 1. A set of 12-mer overlapping synthetic peptides with an offset of 2 that correspond to the sequence of Gad m 1 was used in an array-based immunoassay (Fig. 6).
This peptide length and surface density (10 nmol/spot) ensures the preservation of amyloid formation (which is conventionally limited to 6 residues), and differs from previous microarrays assays using a 15-mer with an offset of 3 (Perez-Gordo, M. et al. Mol Nutr Food Res 57, 1283-1290, (2013)).
The peptide membranes were assayed using the sera from ten patients who are allergic to fish (Figs. 1, 2). The IgE binding intensity was variable among the tested sera; however, it was possible to identify four major binding regions (I-IV) and two major groups of sera (S-I: S2, S3, S4, S7 and S8; S-II: S1, S5, S6, S12 and S13). […] Of these four regions, region I overlaps the sequence predicted as the cross-β sheet forming (adhesive) segment in helix A, whereas regions III and IV overlap the immunologically reactive sites located on the junctions between the AB and CD domains (residues 33-44) and between the CD and EF domains (residues 65-74) (Martinez, J. et al. Swiss Med Wkly 145, (2015)). Nevertheless, the reactivity of the Ca^2+-binding loop of the EF domain (residues 88-96) and of the C-terminal (residues 95-109) regions was not detected by these sera, as probed by both IgE and IgG4 binding (Fig. 1d) (Perez-Gordo, M. et al. Int Arch Allergy Imm 157, 31-40, (2012)). It merits comment that IgG4 reactivity, which is considered as a protective response in allergy, is largely detected in region IV for both sera groups (Perez-Gordo, M. et al. Int Arch Allergy Imm 157, 31-40, (2012)).
Peptide arrays (SPOT). Dodecapeptides spanning the whole sequence of Gad m 1, with an overlap of ten residues, were solid-phase synthesized and immobilized (≈10 nmol per spot) on an Amino-PEG500-UC540 sheet at the National Centre for Biotechnology (CNB-CSIC, Madrid). Before use, the membranes were rinsed with ethanol, washed three times with TBS (25 mM Tris-HCl, pH 7.5, containing 137 mM NaCl and 2.7 mM KCI), and incubated in TBS containing 1% BSA (w/v) and 2 mM EDTA for 1 h. The membranes were then probed for 2 h with sera from patients who are allergic to fish (1/10 dilution) and the anti-amyloid fibril OC antibody (AB2286 Merck Millipore, 1/2000 dilution), prepared in TBST (TBS containing 0.05% Tween-20) supplemented with 0.5% BSA (w/v) or with rGad m 1 chains (2.5 µM) in TBS. After extensive washes with TBST, a 30 min incubation with either horseradish peroxidase-labeled anti-human IgE (Abcam ab99806, 1/2000 dilution), anti-human IgG4 (Abcam ab99823, 1/4000 dilution), goat anti-rabbit IgG (Sigma, 1/5000 dilution) or anti-6X His tag® antibody (Abcam ab18184, dilution 1/1000) was performed. The signal was developed with the ECL-Western-blotting reagent (Bio-Rad) and detected with a ChemiDoc XRS instrument (Martinez, J. et al. Swiss Med Wkly 145, (2015)). When required, the membranes were regenerated by sequential incubation with TBS containing 8M urea, 1% SDS and 0.5% β-mercaptoethanol for 30 min at 55 °C and three times with acetic acid/ethanol/Milli-Q water (10:50:40). Regions were considered major allergenic epitopes when at least two overlapping peptides were involved. […]

[2] = Peptide array membranes probed with thioflavin T (ThT); type: physicochemical
Procedure: The presence of amyloid folds was then assayed using the conformation-selective OC antibody, which detects oligomer and fibril assemblies produced during the protein fibrillization process and the amyloid probe thioflavin T (ThT) (Kayed, R. et al. Molecular neurodegeneration 2, 18, (2007)). […] Of these regions, peptides 2 and 41 overlap the adhesive segments in helix A and E, predicted by the ZipperDB algorithm (Goldschmidt, L., et al. Proceedings of the National Academy of Sciences of the United States of America 107, 3487-3492, (2010)), peptides 12-16 and 34 lie over the IgE-binding regions III and IV, peptide 24 contains part of the Ca^2+-binding site of domain CD, and peptide 49 corresponds to a previously described epitope groups (Perez-Gordo, M. et al. Mol Nutr Food Res 57, 1283-1290, (2013)) (Fig. 2 and Fig. 7). […] It must be noted that peptides containing the helix C sequence, which was predicted to be an adhesive segment, were not detected by either the OC or ThT binding assays.

[3] = molecular target: T1, Gad m 1 peptide 12 (12-mer overlapping …); assay: SPOT peptide array incubated with rGad m 1 chains (2.5 µM), anti-6XHis detection
[4] = molecular target: T2, Gad m 1 peptide 13 (12-mer overlapping …); assay: as above
[5] = molecular target: T3, Gad m 1 peptide 14 (12-mer overlapping …); assay: as above
[6] = molecular target: T4, Gad m 1 peptide 15 (12-mer overlapping …); assay: as above

| Molecule | IgE binding [1] | also measured |
| --- | --- | --- |
| 6: 12-mer overlapping synthetic peptide of the Gad m 1 sequence, SEQ ID NO: 6 (DITAALAACKAE) [compound 6] | only recognized by the sera group S-II | – |
| 18: 12-mer overlapping synthetic peptide of the Gad m 1 sequence, SEQ ID NO: 18 (GLAAKSSADIKK) [compound 18] | variable recognition by the distinct sera | – |
| 7: 12-mer overlapping synthetic peptide of the Gad m 1 sequence, SEQ ID NO: 7 (TAALAACKAEGS) [compound 7] | only recognized by the sera group S-II | – |
| 12: 12-mer overlapping synthetic peptide of the Gad m 1 sequence, SEQ ID NO: 12 (GSFDHKAFFTKV) [compound 12] | – | ThT fluorescence emission [2]: increased fluorescence emission |
| 19: 12-mer overlapping synthetic peptide of the Gad m 1 sequence, SEQ ID NO: 19 (AAKSSADIKKVF) [compound 19] | variable recognition by the distinct sera | – |
| 1: 12-mer overlapping synthetic peptide of the Gad m 1 sequence, SEQ ID NO: 1 (MAFAGILNDADI) [compound 1] | only recognized by the sera group S-II | – |
| B1 | – | binding result [3]: binds; binding result [4]: binds; binding result [5]: binds; binding result [6]: binds |
